Laboratory results published in paper PMC12526058, “1,2,4-Thiadiazolidin-3,5-Diones as Inhibitors of Cysteine Proteases” (Molecules, 2025).
Several values for one entry are separate records, joined by “and”; a condition that tells them apart may be missing. Equal values may be shown once. Entries after “also recorded” stand apart in the source; their conditions may differ.

How the values were obtained:
Papain [1] = target: T1, Papain (Carica papaya, UniProt P00784); assay: Papain inhibition, IC50 (Z-Phe-Arg-MCA substrate, 10 min pre-incubation); format: biochemical; settings: for IC50 / IC50 for inhibition of Papain: 30 °C, 10 min pre-incubation, 100 mM sodium phosphate, 1 mM EDTA, pH 6.0, Z-Phe-Arg-MCA, Papain 120 nM
T1 construct: purchased Sigma
T1 sequence (P00784 134-345): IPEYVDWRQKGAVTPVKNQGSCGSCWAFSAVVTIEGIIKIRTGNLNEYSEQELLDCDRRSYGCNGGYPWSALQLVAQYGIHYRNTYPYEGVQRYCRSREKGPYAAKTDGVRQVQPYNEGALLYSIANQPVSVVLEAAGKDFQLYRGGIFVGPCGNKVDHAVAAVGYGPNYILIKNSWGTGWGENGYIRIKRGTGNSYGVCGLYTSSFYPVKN
Description: Papain and Bromelain were purchased from Sigma. Papain was previously activated at 25 °C in a degassed 100 mM sodium phosphate, 1 mM EDTA, pH 6.0 buffer containing 5 mM DTT (dithiothreitol) for 10 min, as previously described. To remove the DTT excess, a 1 mL solution of activated Papain was loaded on a 3 mL syringe with 1 mL Sephadex G25 size exclusion resin (Amersham Pharmacia, Amersham, UK). The enzyme was eluted with the same assay buffer, and its activity was monitored using Z-Phe-Arg-MCA as the substrate.
The activities of Cathepsin L and Papain were assessed using Z-Phe-Arg-MCA.

SARS-CoV-2 3CLpro = SARS-CoV-2 3CLpro (Severe acute respiratory syndrome coronavirus 2, UniProt P0DTD1); assay: 3CLpro inhibition, IC50 (FRET substrate, 10 min pre-incubation); format: biochemical
Papain [2] = target: T1, Papain; assay: Papain inactivation kinetics, two-step irreversible mechanism; format: biochemical; settings: Papain 48nM, Z-FR-MCA 1.5µM, 100 mM sodium phosphate, 1 mM EDTA, pH 6.0; for KI (inactivation): read-out: Ki, Papain inactivation (Ki = k-3/k3)
Text: (§1) This is confirmed by kinetic analyses of the reaction of THIA-3 with Papain, used as a diagnostic method as previously reported. The kinetic constant values of the reaction of the ten THIA compounds with Papain, for the reaction paths shown below, are reported in Table S2.
Table S2. Values of the kinetic constants for Papain inactivation kinetics analyses by all THIA compounds obtained for a two-step irreversible mechanism (see below the reaction paths) as reported in the reference (31)
Conditions: Papain 48nM, substrate Z-FR-MCA 1.5µM. Buffer: 100 mM sodium phosphate, 1 mM EDTA, pH 6.0. The kinetic constants for the reaction are indicated in the scheme below.
Ki represents the relation: Ki = k-3/k3, which is the dissociation constant describing the binding affinity between the inhibitor and the enzyme. In contrast, the IC50 is the concentration of inhibitor required to reduce enzymatic activity to half of its uninhibited value. The IC50 is less precise than Ki and depends on measurement conditions and the mechanism of inhibition. […] It is noteworthy that kinetic constants for Papain inactivation by THIA compounds are consistent with a two-step irreversible mechanism.

SARS-CoV-2 PLpro = SARS-CoV-2 PLpro (Severe acute respiratory syndrome coronavirus 2, UniProt P0DTD1); assay: biochemical
Papain [3] = target: T1, Papain; assay: Type of inhibition (time dependence, reversibility) on Papain; format: biochemical; settings: reverted by reducing agents
Description: (§2) Initially, we identified the type of inhibition in each protease using THIA-3 as a reference compound for all the tested THIA derivatives. […] Due to the susceptibility of the THIA derivatives to reducing agents, such as Cys or DTT (Figure S4), the proteases Papain, Cathepsin L, 3CLpro, and PLpro were separately pre-activated by 5 mM DTT during 30 min, which was removed by gel filtration, forming stock solutions of the activated proteases, and then kept at −20 °C under an N2 atmosphere for future use.
as §1
(§3) Figure S3. […] The assay has been performed following the procedure described in Reference ACS Omega 6 (2021) 16584−16591. https://doi.org/10.1021/acsomega.1c01797.
Figure S4. Inhibition of Papain by THIA-3 and its reversibility by cysteine (Cys) as a reducing agent. Z-FR-MCA as substrate, Papain activity was assessed before and after pre-incubation with 5µM THIA-3 for 5 min, and then assayed after Cys addition (10 µM).

Cathepsin L = target: T2, Cathepsin L (Homo sapiens, UniProt P07711); assay: Type of inhibition on Cathepsin L; format: biochemical
T2 construct: made in house; host or cells: Pichia pastoris
T2 sequence (P07711 114-333): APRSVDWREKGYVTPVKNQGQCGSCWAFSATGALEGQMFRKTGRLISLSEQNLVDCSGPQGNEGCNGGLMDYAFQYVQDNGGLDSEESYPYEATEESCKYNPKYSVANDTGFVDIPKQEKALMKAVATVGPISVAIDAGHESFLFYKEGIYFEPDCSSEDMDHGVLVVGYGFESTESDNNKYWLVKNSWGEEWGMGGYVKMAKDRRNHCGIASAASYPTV
Description: as §2

3CLpro = 3CLpro (Severe acute respiratory syndrome coronavirus 2, UniProt P0DTD1); assay: Type of inhibition (time dependence, reversibility) on 3CLpro; format: biochemical, SARS-CoV-2; settings: reverted by reducing agents
Description: as §2, §1, §3

PLpro [4] = target: PLpro (Severe acute respiratory syndrome coronavirus 2, UniProt P0DTD1); assay: Type of inhibition (reversibility assay) on PLpro; format: biochemical, SARS-CoV-2
[5] = Stability of THIA derivatives in organic solvents and buffers (LC-MS); format: physicochemical; settings: for Stability of 10 mM stock solutions in DMSO stored at −20 °C: 10 mM in DMSO, freezer −20 °C, LC-MS
Description: We chose THIA-3 as a reference due to its simplicity in larger-scale synthesis to evaluate the stability of this class of compounds. […] In the Tris buffer, decomposition to 1,3-diphenylurea was very slow, with some decomposition only apparent after 12 h of incubation (Figure S1B). We also evaluated the stability of 10 mM stock solutions of the ten THIAs in DMSO stored in a freezer (−20 °C) by Liquid Chromatography Mass Spectrometry (LC-MS). […] DMSO is also considered a reagent, but we have not explored the decomposition of THIA compounds in DMSO further, as it falls outside the scope of this work.
Figure S1. (A) - Stability THIA-3 in DMSO with 1% H2O. (B)- Stability of THIA-3 in water,100 mM sodium phosphate, Tris buffer pH 7.4, with 1 to 40% ACN.
Figure S2. Stability of THIAs in dimethyl sulfoxide and stored at -20 °C

PLpro [6] = settings: noncovalent, binding to S4–S3 subsites; read-out: IC50 for inhibition of PLpro; cited from earlier work
Bromelain = Bromelain (Ananas comosus, UniProt P14518); design: method as in PMID 33177555; settings: cited from earlier work
Chain of Bromelain (P14518 whole entry): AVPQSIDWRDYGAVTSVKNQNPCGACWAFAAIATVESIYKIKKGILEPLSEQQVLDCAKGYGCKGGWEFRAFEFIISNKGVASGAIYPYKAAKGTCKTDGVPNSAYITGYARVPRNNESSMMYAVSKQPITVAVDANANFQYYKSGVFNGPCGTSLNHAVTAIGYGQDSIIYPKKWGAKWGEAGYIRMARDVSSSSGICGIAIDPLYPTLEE

Papain [7] = target: T1, Papain; design: method as in PMID 21329361; settings: cited from earlier work
[8] = IC50 for inhibition of 3CLpro, 30 °C, 10 min pre-incubation, 50 mM Tris, 1 mM EDTA, pH 7.5, Abz-[…](Dnp)-NH2, 3CLpro 27 nM
[9] = IC50 for inhibition of 3CLpro (bound), unit inferred

Row | SMILES | IC50 (Papain [1]) | IC50 (SARS-CoV-2 3CLpro; [8]) [nM] | k3, Papain inactivation (Papain [2]) [µM/s] | k4, Papain inactivation (Papain [2]) [s⁻¹] | KI (inactivation) (Papain [2]) [nM] | IC50 (SARS-CoV-2 PLpro) [nM] | IC50 for inhibition of Papain (Papain [1]) | Stability of 10 mM stock solutions in DMSO stored at −20 °C [5] | also measured
1 | COc1ccc(-n2sc(=O)n(-c3ccc(C)cc3)c2=O)cc1 [THIA-5] | 102 ± 3 nM | 90 ± 10 | 12.3 | 0.021 | 270 | 3900 ± 700 | – | – | –
2 | O=c1sn(-c2ccccc2)c(=O)n1-c1ccccc1 [THIA-3] | 140 ± 20 nM | 110 ± 10 | 19.7 | 0.008 | 170 | 8500 ± 200 | – | – | Type of inhibition of Papain (Papain [3]): covalent irreversible inhibition; also recorded: two-step covalent enzyme inactivation mechanism; Type of inhibition of Cathepsin L (Cathepsin L): irreversible inhibition; Type of inhibition of 3CLpro (3CLpro): covalent irreversible inhibition; also recorded: two-step covalent enzyme inactivation mechanism; Type of inhibition of PLpro (PLpro [4]): reversible inhibition; Stability in DMSO with 1% water [5]: decomposed to 1,3-diphenylurea; Stability in acetonitrile (ACN) [5]: remained stable
3 | COc1ccc(-n2sc(=O)n(-c3ccc(OC)cc3)c2=O)cc1 [THIA-6] | 10 ± 1 nM | 30 ± 10 | 14.5 | 0.019 | 270 | 12500 ± 900 | – | – | Fold higher Papain inhibitory potency than THIA-4 (Papain [1]; ratio of Papain IC50 values): sevenfold; Fold increase in Papain inhibitory potency compared to THIA-8 (Papain [1]; ratio of Papain IC50 values): 240 fold; IC50 (SARS-CoV-2 3CLpro; unit inferred): < 50 nM
5 | COc1ccc(-n2sc(=O)n(-c3ccccc3)c2=O)cc1 [THIA-4] | 70 nM and 71 nM | 130 ± 10 | 4.9 | 0.015 | 80 | 7600 ± 900 | – | – | –
6 | COc1ccc(-n2sc(=O)n(Cc3ccccc3)c2=O)cc1 [THIA-2] | 1280 ± 70 nM | 120 ± 10 | 24.6 | 0.012 | 320 | 8300 ± 800 | in the μM range | the most resistant | –
7 | O=c1sn(-c2ccc(F)cc2)c(=O)n1-c1ccccc1 [THIA-10] | 10 nM and 11 nM | 20 ± 10 | 13.7 | 0.022 | 310 | 10000 ± 1000 | – | the most resistant; also recorded: THIA-10 No degradation detected | IC50 (SARS-CoV-2 3CLpro; [9]): < 50 nM; Type of inhibition of Papain (Papain [3]): two-step covalent enzyme inactivation mechanism
8 | Cc1ccc(-n2sc(=O)n(-c3ccccc3)c2=O)cc1 [THIA-9] | 110 ± 10 nM | 160 ± 80 | 14.5 | 0.024 | 340 | 10400 ± 400 | – | – | –
9 | CC(C)C[C@H](NC(=O)[C@H]1O[C@@H]1C(=O)O)C(=O)NCCCCN=C(N)N (relative stereo) [E-64, L-trans-Epoxysuccinyl-leucylamido (4-guanidino)butane] | – | – | – | – | – | – | – | – | Inhibition of Bromelain (Bromelain): poor inhibition
10 | COc1ccc(-n2sc(=O)n(-c3ccc(Cl)cc3)c2=O)cc1 [THIA-7] | 130 ± 10 nM | 10 ± 10 | 17.3 | 0.009 | 160 | 14400 ± 700 | in the nanomolar range | the most resistant | IC50 (SARS-CoV-2 3CLpro; [9]): < 50 nM
11 | O=c1sn(-c2ccccc2)c(=O)n1Cc1ccccc1 [THIA-1] | 2160 ± 90 nM | 130 ± 10 | 19.9 | 0.013 | 260 | 25000 ± 3000 | in the μM range | the most resistant | –
12 | COc1ccc(-n2sc(=O)n(C3CCCCC3)c2=O)cc1 [THIA-8] | 2400 ± 100 nM | 190 ± 10 | 109.9 | 0.016 | 680 | 4200 ± 100 | in the μM range | the most resistant | –
13 | Cc1ccc(-n2sc(=O)n(Cc3ccc(F)cc3)c2=O)cc1 [CCG-50014, 4-(4-fluorobenzyl)-2-p-tolyl-1,2,4-thiadiazolidine-3,5-dione] | – | – | – | – | – | – | – | – | Inhibition of Papain (Papain [7]): complete absence of papain inhibition; also recorded: failed to inhibit Papain
